Data from the supplement of paper PMC10307832.

Experiments:
Assay in all cases: relative viability (nuclei count vs DMSO), 5 days (fraction); higher = more cells survive
Ispinesib + Bortezomib = compound: Cc1ccc(C(=O)N(CCCN)[C@@H](c2nc3cc(Cl)ccc3c(=O)n2Cc2ccccc2)C(C)C)cc1 [Ispinesib] + CC(C)C[C@H](NC(=O)[C@H](Cc1ccccc1)NC(=O)c1cnccn1)B(O)O [Bortezomib] (partner 0.002 µM)
Procedure, shortened: (§1)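 Five library-drug doses in √10 steps were combined with a fixed anchor-drug dose, or a single drug was given alone, by pin tool to lung cancer cell lines in 1536-well plates the day after seeding. Nuclei were stained and counted after 5 days. Relative viability is the nuclei count in treated wells over that in vehicle wells, taken as the median of duplicate plates.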

Linsitinib + Tozasertib = compound: C[C@]1(O)C[C@@H](c2nc(-c3ccc4ccc(-c5ccccc5)nc4c3)c3c(N)nccn32)C1 [Linsitinib] + Cc1cc(Nc2cc(N3CCN(C)CC3)nc(Sc3ccc(NC(=O)C4CC4)cc3)n2)n[nH]1 [Tozasertib] (partner 0.1 µM)
Procedure, shortened: as §1

Linsitinib + AZD7762 = compound: C[C@]1(O)C[C@@H](c2nc(-c3ccc4ccc(-c5ccccc5)nc4c3)c3c(N)nccn32)C1 [Linsitinib] + NC(=O)Nc1cc(-c2cccc(F)c2)sc1C(=O)N[C@H]1CCCNC1 [AZD7762] (partner 0.2 µM)
Procedure, shortened: as §1

Ispinesib + Lapatinib = compound: Cc1ccc(C(=O)N(CCCN)[C@@H](c2nc3cc(Cl)ccc3c(=O)n2Cc2ccccc2)C(C)C)cc1 [Ispinesib] + CS(=O)(=O)CCNCc1ccc(-c2ccc3ncnc(Nc4ccc(OCc5cccc(F)c5)c(Cl)c4)c3c2)o1 [Lapatinib] (partner 2 µM)
Procedure, shortened: as §1

Row | Cell Line | relative viability (Ispinesib + Bortezomib; first compound 0.001 µM) | relative viability (Ispinesib + Bortezomib; first compound 0.003162 µM) | relative viability (Ispinesib + Bortezomib; first compound 0.01 µM) | relative viability (Ispinesib + Bortezomib; first compound 0.03162 µM) | relative viability (Ispinesib + Bortezomib; first compound 0.1 µM) | relative viability (Linsitinib + Tozasertib; first compound 0.01 µM) | relative viability (Linsitinib + Tozasertib; first compound 0.03162 µM) | relative viability (Linsitinib + Tozasertib; first compound 0.1 µM) | relative viability (Linsitinib + Tozasertib; first compound 0.3162 µM) | relative viability (Linsitinib + Tozasertib; first compound 1 µM) | relative viability (Linsitinib + AZD7762; first compound 0.01 µM) | relative viability (Linsitinib + AZD7762; first compound 0.03162 µM) | relative viability (Linsitinib + AZD7762; first compound 0.1 µM) | relative viability (Linsitinib + AZD7762; first compound 0.3162 µM) | relative viability (Linsitinib + AZD7762; first compound 1 µM) | relative viability (Ispinesib + Lapatinib; first compound 0.001 µM) | relative viability (Ispinesib + Lapatinib; first compound 0.003162 µM) | relative viability (Ispinesib + Lapatinib; first compound 0.01 µM) | relative viability (Ispinesib + Lapatinib; first compound 0.03162 µM) | relative viability (Ispinesib + Lapatinib; first compound 0.1 µM)
1 | LCLC-97TM1 | 0.518 | 1.16 | 0.689 | 0.143 | 0.254 | 0.193 | 0.29 | 0.174 | 0.159 | 0.257 | 0.299 | 0.271 | 0.317 | 0.162 | 0.271 | 0.998 | 1.18 | 0.858 | 0.673 | 0.112
2 | A-427 | 0.98 | 1.07 | 1.01 | 0.351 | 0.206 | 0.211 | 0.222 | 0.234 | – | 0.177 | 0.749 | 0.624 | 0.742 | – | 0.535 | 1.09 | 1.07 | 1.13 | 0.406 | 0.162
3 | ABC-1 | 0.269 | 0.317 | 0.302 | 0.197 | 0.273 | 0.18 | 0.164 | 0.145 | 0.153 | 0.171 | – | – | 0.765 | 0.861 | 0.602 | 1.06 | 1.18 | 1.19 | 1.03 | 0.766
4 | NCI-H460 | 1.53 | 1.48 | – | 0.793 | 0.0396 | 0.476 | 0.381 | 0.508 | 0.328 | 0.367 | 0.566 | 0.614 | 0.698 | – | 0.398 | 1.1 | 1.23 | 1.39 | 0.335 | 0.0345
5 | NCI-H23 | 0.977 | 1.09 | 1.6 | 0.331 | 0.241 | 0.365 | 0.485 | 0.372 | 0.437 | 0.331 | 0.239 | 0.205 | 0.215 | 0.254 | 0.23 | 0.915 | 1.16 | 1.04 | 0.245 | 0.293
6 | LOU-NH91 | 0.507 | 0.507 | 0.575 | 0.444 | 0.395 | 0.705 | 0.642 | 0.708 | 0.531 | 0.594 | 0.763 | 0.701 | 0.742 | 0.693 | 0.58 | 0.785 | 0.799 | 0.779 | 0.447 | 0.271
7 | NCI-H2126 | 1.1 | 1.14 | 1.24 | 1.14 | 0.773 | 0.768 | 0.828 | 0.767 | 0.727 | 0.646 | 0.972 | 0.997 | 1.05 | 0.871 | 0.887 | 0.719 | 0.804 | 0.846 | 0.781 | 0.534
8 | NCI-H1437 | 0.451 | 0.608 | 0.592 | 0.487 | 0.134 | 0.388 | 0.352 | 0.444 | 0.333 | 0.451 | 1.15 | 1.16 | 1.11 | 0.964 | 1.1 | 0.98 | 0.928 | 0.901 | 0.419 | 0.206
9 | NCI-H838 | 0.745 | 0.9 | 0.991 | 0.674 | 0.23 | 0.277 | 0.209 | 0.295 | – | 0.221 | 0.933 | 0.85 | 0.903 | 0.713 | 0.77 | 1.08 | 1.09 | 1.31 | 0.183 | 0.26
10 | NCI-H1755 | 0.975 | 1.07 | 1.01 | 0.605 | 0.249 | 0.585 | 0.587 | 0.569 | 0.375 | 0.514 | 0.454 | 0.421 | 0.531 | 0.657 | 0.363 | 1.02 | 1.16 | 1.09 | 0.41 | 0.203
11 | NCI-H1915 | 1.04 | 1.14 | 1.13 | 0.797 | 0.172 | 0.44 | 0.477 | 0.437 | 0.378 | 0.353 | 0.661 | 0.641 | 0.785 | 0.748 | 0.538 | 0.958 | 1.06 | 1 | 0.363 | 0.139
12 | NCI-H2347 | – | 1 | 0.665 | 1.08 | 0.758 | 0.557 | 0.669 | 0.571 | – | 0.414 | 0.645 | 0.736 | 0.792 | 0.747 | 0.669 | 0.943 | 1.05 | 0.957 | 0.667 | 0.774
13 | HARA | 1.37 | 1.21 | 1.42 | 0.931 | 0.211 | 0.135 | 0.106 | 0.202 | – | 0.138 | 0.355 | 0.237 | 0.344 | – | 0.179 | 0.8 | 0.856 | 0.987 | 0.151 | 0.144
14 | NCI-H2085 | 1.08 | 1.08 | 1.18 | 0.818 | 0.484 | 0.768 | 0.748 | 0.932 | 0.817 | 0.706 | 0.916 | 0.837 | 1.04 | 0.896 | 0.939 | 0.721 | 0.857 | 0.81 | 0.444 | 0.314
15 | NCI-H650 | 0.875 | 1.25 | 0.826 | 0.582 | 0.355 | 0.762 | 0.786 | 0.699 | 0.502 | 0.601 | 1.01 | 0.801 | 0.922 | – | 0.905 | 0.89 | 1.17 | 0.638 | 0.34 | 0.23
16 | NCI-H727 | – | 1.71 | 1.21 | 0.762 | 0.337 | 0.643 | 0.67 | 0.689 | 0.623 | 0.523 | 0.39 | 0.503 | 0.346 | 0.363 | 0.376 | – | 0.81 | 0.809 | 0.426 | 0.29
17 | NCI-H1993 | 1.23 | 1.14 | 1.1 | 1.03 | 0.585 | 0.561 | 0.606 | 0.619 | 0.579 | 0.602 | 0.734 | 0.773 | 0.623 | 0.509 | 0.513 | 0.871 | 0.899 | 0.764 | 0.759 | 0.58
18 | EMC-BAC-2 | 1.06 | 1.13 | 1.27 | 0.671 | 0.214 | 0.294 | 0.271 | 0.291 | 0.206 | 0.255 | 1.12 | 1.07 | 1.1 | 0.775 | 0.553 | 0.936 | 0.933 | 1 | 0.724 | 0.233
19 | NCI-H2087 | 0.852 | 0.978 | 1.05 | 0.477 | 0.153 | 0.219 | 0.259 | 0.196 | 0.141 | 0.203 | 1.15 | 1.23 | 1.38 | 1.34 | 1.13 | 0.92 | 1.04 | 1.35 | 0.293 | 0.182
20 | LXF-289 | 0.993 | 0.992 | 1.14 | 0.799 | 0.118 | 0.184 | 0.193 | 0.196 | – | 0.148 | 1.04 | 1.04 | 1.13 | 0.731 | 1.04 | 0.872 | 0.909 | 1.01 | 0.634 | 0.118
21 | PC-3 [JPC-3] | 0.796 | 0.869 | 0.903 | 0.763 | 0.297 | 0.87 | 0.911 | 0.904 | 0.777 | 0.793 | 0.784 | 0.758 | 0.846 | 0.495 | 0.597 | 0.456 | 0.486 | 0.439 | 0.413 | 0.318
22 | HCC-366 | 1.29 | 1.1 | 1.43 | 0.323 | 0.0344 | 0.108 | 0.147 | 0.187 | 0.0897 | 0.0876 | 0.261 | 0.228 | 0.301 | 0.361 | 0.12 | 1.03 | 1.12 | 1.33 | 0.0151 | 0.0387
23 | NCI-H1651 | 0.934 | 1.16 | 0.926 | 0.796 | 0.712 | 0.619 | 0.646 | 0.714 | 0.484 | 0.513 | 0.221 | 0.467 | 0.429 | 0.525 | 0.447 | 0.974 | 1.02 | 1.04 | 0.234 | 0.187
24 | NCI-H1355 | 1.28 | 1.23 | 1.43 | 0.815 | 0.293 | 0.584 | 0.576 | 0.475 | 0.458 | 0.428 | 0.66 | 0.604 | 0.633 | 0.602 | 0.329 | 1.09 | 0.93 | 1.22 | 0.644 | 0.3
25 | LC-2-ad | 1.01 | 1.07 | 1.07 | 0.917 | 0.119 | 0.48 | 0.523 | 0.387 | 0.285 | 0.41 | 0.862 | 0.816 | 0.814 | 0.805 | 0.54 | 0.949 | 1.02 | 1.07 | 0.504 | 0.114
26 | HCC-827 | 1.1 | 1.18 | 1.04 | 0.691 | 0.875 | 0.43 | 0.426 | 0.433 | – | 0.393 | 0.151 | 0.223 | 0.207 | – | 0.221 | 0.194 | 0.194 | 0.181 | 0.189 | 0.0607
27 | NCI-H3122 | 1.07 | 0.945 | 1.09 | 1.06 | 0.202 | 0.458 | 0.373 | 0.437 | – | 0.425 | 0.985 | 0.992 | 0.968 | – | 0.765 | 0.986 | 1.01 | 1.07 | 0.72 | 0.21
